Values after ≈ are worked out from the molar mass of the structure shown. Counter-ions that a name gives are not always drawn. Like-named read-outs stand apart in the source and are kept apart here.
Key:
[1] = system: thermophilic microorganisms; assay: germ-inhibiting activity (acid formation) under sugar production conditions, general statements; format: cell-based
Protocol: If at 35-45° C., i.e. at those temperatures, at which it is usually worked in microbiology, a culture medium is inoculated with non-sterile crude juice from a sugar beet extraction, in most cases it is difficult to stop, by the addition of fatty acids, an acid formation recognizable by a drop in the pH (particularly in mixed cultures in which insensitive microorganism can prevail). On the other hand, the acid formation at 55° C. and 65° C. is blocked by fatty acids, depending on the chain lengths, at concentrations of from 4 to 40 mg/l over a period of time of from 1 to 10 hours. While a maximum of C11-C12 is indicated for the effects observed at normal temperature (Ullmann 1975), for thermophilic microorganisms at the higher temperature the effective maximum lies at C14 (myristic acid)
(§1) If a sugar-containing substrate, e.g. a sugar-containing liquid culture medium, as it is common in microbiology, is either non-sterilized or incubated after inoculation with a bacterial strain, an acid formation will occur which is the easiest to recognize by a drop in the pH. The same phenomenon will occur when incubating normal sugar-containing plant juices, e.g. beet juice. In an industrial process, e.g. in the recovery of sugar juice from sugar beets, a drop in the pH by degradation of sugar means a loss of sugar and a need for an alkalizing agent. Moreover, a drop in the pH with an increase in the germ content in the substrate often is associated with an unpleasant gas and nitrite formation. This arrangement also forms an efficient system for determining the germ-inhibiting activity of substances within the scope of the sugar production process.
If during such an acid formation caused by thermophilic microorganisms at higher temperatures, for instance a solution of fatty acid compounds according to the invention is added, the acid formation and the drop in the pH associated therewith will stop starting from a certain concentration of 10 ppm. Thus, the disadvantages associated with the acid formation can be avoided by the addition of myristic acid, e.g., to a sugar-containing substrate. […]

thermophilic bacteria [2] = assay: pH drop (acid formation) in liquid culture medium inoculated with crude juice from sugar beet extraction, 65° C.; format: cell-based, thermophilic bacteria (mixed culture); conditions: for behavior in such an example (effect on pH drop): as Example 2, compared with palmitic acid (basic effect lasting only a very short period); for concentration at which the pH drop is stopped / effect reached: additions of 10 mg/l
Protocol: as §1, with “formation.” for “formation. This arrangement also forms an efficient system for determining the germ-inhibiting activity of substances within the scope of the sugar production process.”
A liquid culture medium, as commonly used in microbiology and consisting of 10 g of Bacto-peptone, 5 g of meat extract, 5 g of yeast extract, 1 g of glucose, 1 g of K2HPO4, 0.1 g of MgSO4*7H2O and 0.01 g of FeSO4*7H2O per liter of distilled water, is sterilized in conventional manner for 20 min at 120° C. and inoculated, in a vessel kept at a temperature of 65° C., with 20 ml of crude juice from a large-scale sugar beet extraction, wherein the pH is registered on a recorder. Upon the growth of thermophilic bacteria, the pH drops progressively. This indicates a microorganism-caused acid formation.
A mixed culture according to Example 1 is prepared.

thermophilic bacteria [3] = assay: determination of MIC by stepwise addition until stabilization of the pH, 65° C.; format: cell-based, thermophilic bacteria (mixed culture)
Protocol: To illustrate the antimicrobial activity within the scope of sugar production, examples are carried out with […] compounds by way of example. […] Upon the growth of thermophilic bacteria, the pH drops progressively. This indicates a microorganism-caused acid formation. […] The fatty acid compounds used in this Example are myristic acid and lauric acid, and their potassium salts, respectively. In this case, the acids were used both individually and in a 1:1 mixture, the salts were exclusively used in a 1:1 mixture.

[4] = dissolved in ethanol, 10 mg/l steps, maximum 150 mg/l, 65° C., read-out: Min. Inhibitory Conc. (MIC)
[5] = Time 4.50 h, 3×10 mg/l added between pH 6.74 and 6.49, 65° C.
[6] = Time 4.75 h, total 30 mg/l, 65° C.
[7] = Time 5 h, total 30 mg/l, 65° C.
[8] = Time 6 h, total 30 mg/l, 65° C.
[9] = Time 7 h, total 30 mg/l, 65° C.
[10] = Time 8 h, total 30 mg/l, 65° C.
[11] = Time 9 h, total 30 mg/l, 65° C.
[12] = Time 10 h, total 30 mg/l, 65° C.
[13] = Time 6 h, 10 mg/l as potassium salt added at pH 6.46 (5 h), 65° C.
[14] = Time 7 h, 10 mg/l as potassium salt added at pH 6.46 (5 h), 65° C.
[15] = Time 8 h, 10 mg/l as potassium salt added at pH 6.46 (5 h), 65° C.
[16] = Time 9 h, 10 mg/l as potassium salt added at pH 6.46 (5 h), 65° C.
[17] = Time 11 h, 10 mg/l as potassium salt added at pH 6.46 (5 h), 65° C.
[18] = Time 13 h, 10 mg/l as potassium salt added at pH 6.46 (5 h), 65° C.
[19] = Time 15 h, 10 mg/l as potassium salt added at pH 6.46 (5 h), 65° C.
[20] = Time 17 h, 10 mg/l as potassium salt added at pH 6.46 (5 h), 65° C.
[21] = Time 6.00 h, 10 mg/l added at pH 6.52 (5.10 h), 65° C.
[22] = Time 6.50 h, 10 mg/l added at pH 6.52 (5.10 h), 65° C.
[23] = Time 7 h, 10 mg/l added at pH 6.52 (5.10 h), 65° C.
[24] = Time 8 h, 10 mg/l at pH 6.52 and 4×10 mg/l between pH 6.49 and 6.36, 65° C.
[25] = Time 9 h, total 50 mg/l, 65° C.

Question: How did the effective concentration [1] turn out when CCCCCCCCCCCCCCCCCCO [stearyl alcohol] was run?
Answer: markedly higher concentrations have to be employed

Question: How did the “behavior in such an example (effect on pH drop)” value (“behavior in such an example” for short) (thermophilic bacteria [2]) turn out when CCCCCCCCCCCCCCCCCC(=O)O [stearic acid] was run?
Answer: Quite similar

Question: What does the source list for CCCCCCCCCCCCCCO [Myristyl Alcohol, 1-tetradecanol]?
Answer: MIC (thermophilic bacteria [3]; [4]): 10 µg/mL (≈ 46.6 µM); effective concentration [1]: ≤ 10 ppm

Question: For CCO [alcohol], which “amount that impairs such a culture” value (thermophilic bacteria [2]; mixed culture, 65° C.) is on record?
Answer: 40-60 ml alcohol per liter culture liquid

Question: With CCCCCCCCCCCCCC(=O)OCCC [Propyl-Myristate, reference compound] as the compound, how does the MIC (thermophilic bacteria [3]; [4]) read?
Answer: > 150 µg/mL

Question: What does the source list for CCCCCCCCCCCC(=O)O [lauric acid]?
Answer: MIC (thermophilic bacteria [3]; dissolved in ethanol, steps of 2 mg/l, read-out: Min. Inhibitory Conc. (MIC)): 18 µg/mL (≈ 89.9 µM); MIC (thermophilic bacteria [3]; text summary of Example 9, read-out: MIC (concentration successfully used)): 18000 µg/mL (≈ 89900 µM); effect on pH drop (thermophilic bacteria [2]; 20 mg/l (two additions), mixed culture, 65° C.): does not have any effect; pH (thermophilic bacteria [2]; [5]): 6.49; ΔpH/h (thermophilic bacteria [2]; [5]): 1.00; pH (thermophilic bacteria [2]; [6]): 6.49; ΔpH/h (thermophilic bacteria [2]; [6]): 0.00; pH (thermophilic bacteria [2]; [7]): 6.49; ΔpH/h (thermophilic bacteria [2]; [7]): 0.00; pH (thermophilic bacteria [2]; [8]): 6.50; ΔpH/h (thermophilic bacteria [2]; [8]): −0.01; pH (thermophilic bacteria [2]; [9]): 6.51; ΔpH/h (thermophilic bacteria [2]; [9]): −0.01; pH (thermophilic bacteria [2]; [10]): 6.52; ΔpH/h (thermophilic bacteria [2]; [10]): −0.01; pH (thermophilic bacteria [2]; [11]): 6.52; ΔpH/h (thermophilic bacteria [2]; [11]): 0.00; pH (thermophilic bacteria [2]; [12]): 6.53; ΔpH/h (thermophilic bacteria [2]; [12]): −0.01; concentration at which the pH drop is stopped / effect reached (thermophilic bacteria [2]; mixed culture, 65° C.): 30 mg/l

Question: How did the “behavior in such an example” value (thermophilic bacteria [2]) turn out when CCCCCCCC/C=C\CCCCCCCC(=O)O [oleic acid] was run?
Answer: Quite similar

Question: With CCCCCCCCCCCCCCCCCCCCCC(=O)O [behenic acid, reference compound] as the compound, how does the “behavior in such an example” value (thermophilic bacteria [2]) read?
Answer: does not exhibit any effect

Question: For CCCCCCCCCCC(=O)O [undecanoic acid], which “concentration at which the pH drop is stopped / effect reached” value (thermophilic bacteria [2]; mixed culture, 65° C.) is on record?
Answer: 40 mg/l

Question: For CCCCCCCCCCCCCC(=O)OC [methyl myristate], which inhibitory concentration [1] is on record?
Answer: approximately 100 mg/ml

Question: Which results are given for CCCCCCCCCCCCCC(=O)O [myristic acid as potassium salt, myristic acid]?
Answer: duration of effectiveness (pH drop stopped) (thermophilic bacteria [2]; 10 mg/l, mixed culture, 65° C.): at least 12 h; effect on pH drop (thermophilic bacteria [2]; 10 mg/l, mixed culture, 65° C.): suddenly and lastingly be stopped; pH (thermophilic bacteria [2]; [13]): 6.46; ΔpH/h (thermophilic bacteria [2]; [13]): 0.00; pH (thermophilic bacteria [2]; [14]): 6.46; ΔpH/h (thermophilic bacteria [2]; [14]): 0.00; pH (thermophilic bacteria [2]; [15]): 6.47; ΔpH/h (thermophilic bacteria [2]; [15]): −0.01; pH (thermophilic bacteria [2]; [16]): 6.46; ΔpH/h (thermophilic bacteria [2]; [16]): 0.01; pH (thermophilic bacteria [2]; [17]): 6.46; ΔpH/h (thermophilic bacteria [2]; [17]): 0.00; pH (thermophilic bacteria [2]; [18]): 6.46; ΔpH/h (thermophilic bacteria [2]; [18]): 0.00; pH (thermophilic bacteria [2]; [19]): 6.45; ΔpH/h (thermophilic bacteria [2]; [19]): 0.00; pH (thermophilic bacteria [2]; [20]): 6.45; ΔpH/h (thermophilic bacteria [2]; [20]): 0.00

Question: How did the “concentration at which the pH drop is stopped / effect reached” value (thermophilic bacteria [2]; mixed culture, 65° C.) turn out when C/C=C/C=C/C(=O)O [sorbic acid, reference compound] was run?
Answer: > 150 mg/l

Question: CCCCCCCCCCCCCC(=O)OCC [Ethyl-Myristate, reference compound] was tested. Which MIC (thermophilic bacteria [3]; [4]) did it give?
Answer: > 150 µg/mL

Question: Which “duration of effectiveness (pH drop stopped)” value (thermophilic bacteria [2]; 10 mg/l, mixed culture, 65° C.) does the source give for CCCCCCCCCCCCCCCC(=O)O [palmitic acid] here?
Answer: 1.5-2 h

Question: What about the “effect on pH drop” value (thermophilic bacteria [2]; 10 mg/l, mixed culture, 65° C.) of the same compound?
Answer: immediately completely stopped

Question: What about the pH (thermophilic bacteria [2]; [21]) of the same compound?
Answer: 6.53

Question: And the ΔpH/h (thermophilic bacteria [2]; [21])?
Answer: −0.01

Question: And the pH (thermophilic bacteria [2]; [22])?
Answer: 6.53

Question: And the ΔpH/h (thermophilic bacteria [2]; [22])?
Answer: 0.00

Question: And the pH (thermophilic bacteria [2]; [23])?
Answer: 6.49

Question: And the ΔpH/h (thermophilic bacteria [2]; [23])?
Answer: 0.08

Question: What about the pH (thermophilic bacteria [2]; [24]) of the same compound?
Answer: 6.36

Question: And the ΔpH/h (thermophilic bacteria [2]; [24])?
Answer: 0.13

Question: What about the pH (thermophilic bacteria [2]; [25]) of the same compound?
Answer: 6.29

Question: What about the ΔpH/h (thermophilic bacteria [2]; [25]) of the same compound?
Answer: 0.07

Question: And the pH drop (thermophilic bacteria [2]; renewed addition up to total 50 mg/l, retarded from 0.13)?
Answer: 0.07 pH units per hour

— patent publication US7575640B2, “Method for producing sugar and sugar-containing products from sugar-containing plant raw materials” (Zuckerforschung Tulln Gesellschaft m.b.H., priority 2003, dated 2009)
